This note sets out measurements from ChEMBL document CHEMBL3044936, “Antifeedant properties of natural products from Parthenium argentatum, P. argentatumP. tomentosum (Asteraceae) and Castela emoryi (Simaroubeaceae) against Reticulitermes flavipes” (1999).

In brackets after ≈: the same amount, converted by molar mass.

Holding throughout (type): functional
The subject of assay [1] is Reticulitermes flavipes. Description: Ratio of mortality to compound consumption in Reticulitermes flavipes at 5.5 ug/disk after 10 days.
Assay [2] concerns Reticulitermes flavipes. Description: Antitermitic activity against Reticulitermes flavipes assessed as mortality at 5.5 ug/disk after 10 days by no-choice paper disk assay. The following applies: 240 h.
The subject of assay [3] is Reticulitermes flavipes. Kind of assay: Antifeedant activity against Reticulitermes flavipes assessed as compound consumption at 5.5 ug/disk after 10 days by no-choice paper disk assay.
The test system of assay [4] is Reticulitermes flavipes. Description: Antifeedant activity against Reticulitermes flavipes assessed as feeding inhibition at 2.7 ug/disk after 3 days by choice paper disk assay. The following applies: 72 h.
Assay [5] concerns Reticulitermes flavipes. Description: Antifeedant activity against Reticulitermes flavipes assessed as feeding inhibition after 3 days by choice paper disk assay. The following applies: 72 h, read-out: ED50 (the source's name).

As for `COC1=C[C@]2(C)CCC(C(C)C)=CC2=C(C)C1=O` [ARGENTONE], the Ratio in assay [1] worked out at 2. The mortality at 5.5 µg/disc in assay [2] stood at 66%. Moreover, the Activity in assay [3] is listed as 33%. The inhibition at 2.7 µg/disc in assay [4] stood at 70.5%. Also, the EC50 in assay [5] was determined as 85.7 µg/mL (≈ 348 µM).
Taken in the same sequence, the figures for `COc1ccc(C(=O)O[C@H]2C/C(C)=C/CC/C(C)=C/[C@H]3[C@@H]2C3(C)C)cc1` [GUAYULIN B] were 0, 0%, 72%, 31.9% and greater than 1000 µg/mL.
Regarding `CC(=O)O[C@H]1C(=O)O[C@@H]2C[C@H]3C(C)=CC(=O)[C@@H](O)[C@]3(C)[C@H]3[C@]4(O)OC[C@]32[C@@H]1[C@@H](C)[C@H]4O` [HOLACANTHONE], the Ratio in assay [1] was found to be 0.7. In addition, the mortality at 5.5 µg/disc in assay [2] turned out to be 24%. The Activity in assay [3] was 34%. Besides, the inhibition at 2.7 µg/disc in assay [4] came out at 39.4%. The EC50 in assay [5] was greater than 1000 µg/mL.
Taken in the same sequence, the figures for `CC(C)(O)[C@@H]1CC[C@](C)([C@H]2[C@@H](O)C[C@@]3(C)C4=C(CC[C@]23C)[C@@]2(C)CCC(=O)C(C)(C)[C@@H]2CC4)O1` [INCANILIN] were 0, 0%, 16%, 30.8% and greater than 1000 µg/mL.
Taken in the same sequence, the figures for `C/C1=C\[C@H]2[C@@H]([C@@H](O)C/C(C)=C/CC1)C2(C)C` [PARTHENIOL] were 1.1, 71%, 65%, 46% and 490 µg/mL (≈ 2230 µM).

As usually defined, the mortality is the percentage killed. Broadly, the inhibition is the drop in the measured response relative to a control, in per cent.
